Data from patent US20130096067A1, “DROSOPHILA TUMOR STEM CELL MODEL AND USES THEREOF” (priority 2011, published 2013).
Where a name gives a salt, the structure may show the parent alone. Peptide text beside a SMILES is read from it. * marks the point of attachment. Cbz = O=C(OCc1ccccc1)*; CH2F = FC*

Tests used:
[1] = test system: Raf-1^gof intestinal tumors; experiment: Luciferase screen of FDA-approved (NCI) drugs in 96-well plates, flies with Raf-1^gof intestinal tumors; type: in vivo, Drosophila; as to Avg (3 + 6): test concentration or dose not given here; as to Log2 (fold): test concentration or dose not given here
[2] = test system: Raf-1^gof intestinal tumors; conditions: for Log2 (fold) (luciferase activity, log2 of the fold difference relative to DMSO controls) / Fold (luciferase activity, fold difference relative to DMSO controls): screen of 480 ICCB compounds in vials, compounds fed to flies with one-day old Raf-1^gof tumors, esg-Gal4 luciferase; for Log2 (fold) (luciferase activity, log2 of the fold difference relative to DMSO controls) / Fold (luciferase activity, fold difference relative to DMSO controls) / Log2 (fold) of luciferase activity relative to DMSO controls / Fold (luciferase activity relative to DMSO controls): assessed three days later; for Fold (luciferase activity, fold difference relative to DMSO controls) / Fold (luciferase activity relative to DMSO controls): averaged from multiple wells; for Log2 (fold) of luciferase activity relative to DMSO controls / Fold (luciferase activity relative to DMSO controls): ICCB compounds fed in vials to flies with one-day old Raf-1^gof tumors; for Fold: Table 3 summary of hits, Screen ICCB, luciferase relative to DMSO, fed three consecutive days in vials; as to Fold (luciferase activity relative to DMSO controls): test concentration or dose not given here; as to Fold (luciferase activity, fold difference relative to DMSO controls): test concentration or dose not given here; as to Log2 (fold) (luciferase activity, log2 of the fold difference relative to DMSO controls): test concentration or dose not given here; as to Log2 (fold) of luciferase activity relative to DMSO controls: test concentration or dose not given here
[3] = average of Day 3 and Day 6 fold
[4] = log2 of the Day 3 fold difference in luciferase relative to DMSO controls
[5] = luciferase activity relative to DMSO controls, single dose of drug for three days, 96-well plates
[6] = six-day protocol: single dose for three days, then another dose for three more days

Compound | Avg (3 + 6) [1, 3] | Log2 (fold) [1, 4] | Day 3 Fold [1, 5] | Day 6 Fold [1, 6] | further results
CCN(CC)CCCC(C)Nc1c2ccc(Cl)cc2nc2ccc(OC)cc12 (stereo not shown) [Acrichine] | 1.046 fold | −0.212 | 0.863 fold | 1.229 fold | –
Oc1ncnc2[nH]ncc12 [Allopurinol] | 1.997 fold | 1.281 | 2.430 fold | 1.565 fold | –
CN(C)c1nc(N(C)C)nc(N(C)C)n1 [Altretamine] | 0.611 fold | −0.625 | 0.649 fold | 0.574 fold | –
NCCCNCCSP(=O)(O)O [Amifostine] | 1.239 fold | 0.248 | 1.187 fold | 1.291 fold | –
NCC(=O)CCC(=O)O [Aminolevulinic acid] | 0.897 fold | −0.016 | 0.989 fold | 0.805 fold | –
CC(C)(C#N)c1cc(Cn2cncn2)cc(C(C)(C)C#N)c1 [Anastrozole] | 1.000 fold | −0.053 | 0.964 fold | 1.036 fold | –
Nc1ncn([C@@H]2O[C@H](CO)[C@@H](O)[C@H]2O)c(=O)n1 [Azacitidine] | 1.045 fold | 0.157 | 1.115 fold | 0.976 fold | –
CS(=O)(=O)OCCCCOS(C)(=O)=O [Busulfan] | 0.936 fold | 0.166 | 1.122 fold | 0.750 fold | –
CCCCCOC(=O)Nc1nc(=O)n([C@@H]2O[C@H](C)[C@@H](O)[C@H]2O)cc1F [Capecitabine] | 1.017 fold | −0.078 | 0.947 fold | 1.087 fold | –
N.N.O=C([O-])C1(C(=O)[O-])CCC1.[Pt+2] [Carboplatin] | 1.159 fold | 0.059 | 1.042 fold | 1.276 fold | –
O=NN(CCCl)C(=O)NCCCl [Carmustine] | 0.496 fold | – | – | – | Day 3 Fold ([1]; po, 72 h): 0.565 fold; Log2 (fold) ([1]; po, 72 h): −0.823
Cc1ccc(-c2cc(C(F)(F)F)nn2-c2ccc(S(N)(=O)=O)cc2)cc1 [Celecoxib] | 0.755 fold | −0.565 | 0.676 fold | 0.834 fold | –
O=C(O)CCCc1ccc(N(CCCl)CCCl)cc1 [Chlorambucil] | 1.022 fold | 0.175 | 1.129 fold | 0.915 fold | –
N.N.[Cl][Pt][Cl] [Cisplatin] | 1.113 fold | 0.145 | 1.106 fold | 1.120 fold | –
Nc1nc(Cl)nc2c1ncn2[C@H]1C[C@H](O)[C@@H](CO)O1 [Cladribine] | 0.852 fold | 0.072 | 1.051 fold | 0.652 fold | –
Nc1nc(Cl)nc2c1ncn2[C@@H]1O[C@H](CO)[C@@H](O)[C@@H]1F [Clofarabine] | 0.868 fold | −0.164 | 0.893 fold | 0.843 fold | –
O=P1(N(CCCl)CCCl)NCCCO1 (stereo not shown) [Cyclophosphamide] | – | – | – | – | Avg (3 + 6) ([1]; in vivo): 0.857 fold; Day 3 Fold ([1]; in vivo): 0.982 fold; Day 6 Fold ([1]; in vivo): 0.732 fold; Log2 (fold) ([1]; in vivo): −0.025
Nc1ccn([C@@H]2O[C@H](CO)[C@@H](O)[C@@H]2O)c(=O)n1 [Cytarabine HCl] | 1.112 fold | 0.100 | 1.072 fold | 1.153 fold | –
CN(C)/N=N/c1[nH]cnc1C(N)=O [Dacarbazine] | 0.960 fold | −0.010 | 0.993 fold | 0.927 fold | –
Cc1nc(Nc2ncc(C(=O)Nc3c(C)cccc3Cl)s2)cc(N2CCN(CCO)CC2)n1 [Dasatinib] | 1.085 fold | 0.521 | 1.435 fold | 0.736 fold | –
COc1cccc2c1C(=O)c1c(O)c3c(c(O)c1C2=O)C[C@@](O)(C(C)=O)C[C@@H]3O[C@H]1C[C@H](N)[C@H](O)[C@H](C)O1 [Daunorubicin HCl] | 0.227 fold | −1.484 | 0.358 fold | 0.096 fold | –
Nc1ncn([C@H]2C[C@H](O)[C@@H](CO)O2)c(=O)n1 [Decitabine] | 0.569 fold | −1.077 | 0.474 fold | 0.663 fold | –
C[C@@H](CN1CC(=O)NC(=O)C1)N1CC(=O)NC(=O)C1 [Dexrazoxone] | 0.599 fold | −0.428 | 0.743 fold | 0.454 fold | –
CC(=O)O[C@@]12CO[C@@H]1C[C@H](O)[C@@]1(C)C(=O)[C@H](O)C3=C(C)[C@@H](OC(=O)[C@H](O)[C@@H](NC(=O)OC(C)(C)C)c4ccccc4)C[C@@](O)([C@@H](OC(=O)c4ccccc4)[C@H]21)C3(C)C [Docetaxel] | 0.514 fold | −0.887 | 0.541 fold | 0.487 fold | –

Compound | Avg (3 + 6) [1, 3] | Log2 (fold) [1, 4] | Day 3 Fold [1, 5] | Day 6 Fold [1, 6] | further results
CC(C)[C@@H]1NC(=O)[C@H](C)OC(=O)[C@@H](C(C)C)NC(=O)[C@@H](C(C)C)OC(=O)[C@H](C(C)C)NC(=O)[C@H](C)OC(=O)[C@@H](C(C)C)NC(=O)[C@@H](C(C)C)OC(=O)[C@H](C(C)C)NC(=O)[C@H](C)OC(=O)[C@@H](C(C)C)NC(=O)[C@@H](C(C)C)OC1=O [valinomycin] | – | – | – | – | Log2 (fold) (luciferase activity, log2 of the fold difference relative to DMSO controls) [2]: −0.408; Fold (luciferase activity, fold difference relative to DMSO controls) [2]: 0.754
CCOC(=O)C1=C[C@]2(CC)CCCN3CCc4c(n1c1ccccc41)[C@@H]32 [vinpocetine] | – | – | – | – | Log2 (fold) of luciferase activity relative to DMSO controls [2]: 0.280; Fold (luciferase activity relative to DMSO controls) [2]: 1.214 fold
COC(=O)[C@@H]1[C@H]2C[C@H]3c4[nH]c5ccccc5c4CCN3C[C@@H]2CC[C@@H]1O [yohimbine] | – | – | – | – | Log2 (fold) of luciferase activity relative to DMSO controls [2]: 0.061; Fold (luciferase activity relative to DMSO controls) [2]: 1.043 fold
COC(=O)C[C@H](NC(=O)[C@H](C)NC(=O)[C@@H](NC(=O)OCc1ccccc1)C(C)C)C(=O)CF [zVAD-FMK] (Cbz-Val-Ala-Asp(OMe)-CH2F) | – | – | – | – | Log2 (fold) (luciferase activity, log2 of the fold difference relative to DMSO controls) [2]: −0.597; Fold (luciferase activity, fold difference relative to DMSO controls) [2]: 0.661
CCCOc1ccccc1-c1nc2nn[nH]c2c(=O)[nH]1 [zaprinast] | – | – | – | – | Log2 (fold) of luciferase activity relative to DMSO controls [2]: −0.055; Fold (luciferase activity relative to DMSO controls) [2]: 0.962 fold
COc1cc(-c2ccc(=O)[nH]n2)ccc1OC(F)F [zardaverine] | – | – | – | – | Log2 (fold) of luciferase activity relative to DMSO controls [2]: 0.145; Fold (luciferase activity relative to DMSO controls) [2]: 1.106 fold
BW-B 70C | – | – | – | – | Log2 (fold) of luciferase activity relative to DMSO controls [2]: 0.116; Fold (luciferase activity relative to DMSO controls) [2]: 1.084 fold
Cyclo [Cyclo [Arg-Gly-Asp-D-Phe-Val]] | – | – | – | – | Log2 (fold) (luciferase activity, log2 of the fold difference relative to DMSO controls) [2]: −0.221; Fold (luciferase activity, fold difference relative to DMSO controls) [2]: 0.858
HA14-1 | – | – | – | – | Log2 (fold) (luciferase activity, log2 of the fold difference relative to DMSO controls) [2]: −0.590; Fold (luciferase activity, fold difference relative to DMSO controls) [2]: 0.664
ICRF-193 [reference compound] | – | – | – | – | Fold [2]: 0.364 fold; Log2 (fold) (luciferase activity, log2 of the fold difference relative to DMSO controls) [2]: −1.459; Fold (luciferase activity, fold difference relative to DMSO controls) [2]: 0.364
KN-62 | – | – | – | – | Log2 (fold) (luciferase activity, log2 of the fold difference relative to DMSO controls) [2]: −0.513; Fold (luciferase activity, fold difference relative to DMSO controls) [2]: 0.701
LY-83583 | – | – | – | – | Log2 (fold) (luciferase activity, log2 of the fold difference relative to DMSO controls) [2]: −0.465; Fold (luciferase activity, fold difference relative to DMSO controls) [2]: 0.725
LY-171883 | – | – | – | – | Log2 (fold) of luciferase activity relative to DMSO controls [2]: 0.168; Fold (luciferase activity relative to DMSO controls) [2]: 1.124 fold
LY-294002 | – | – | – | – | Log2 (fold) of luciferase activity relative to DMSO controls [2]: −0.204; Fold (luciferase activity relative to DMSO controls) [2]: 0.868 fold
LYSOPHOSPHATIDIC ACID | – | – | – | – | Log2 (fold) (luciferase activity, log2 of the fold difference relative to DMSO controls) [2]: −0.509; Fold (luciferase activity, fold difference relative to DMSO controls) [2]: 0.703
MDL-28170 | – | – | – | – | Log2 (fold) (luciferase activity, log2 of the fold difference relative to DMSO controls) [2]: −0.617; Fold (luciferase activity, fold difference relative to DMSO controls) [2]: 0.652
METHOXY VERAPAMIL | – | – | – | – | Log2 (fold) of luciferase activity relative to DMSO controls [2]: −0.069; Fold (luciferase activity relative to DMSO controls) [2]: 0.954 fold
PROSTAGLANDIN J2 | – | – | – | – | Log2 (fold) (luciferase activity, log2 of the fold difference relative to DMSO controls) [2]: −0.525; Fold (luciferase activity, fold difference relative to DMSO controls) [2]: 0.695
Ro 20-1724 | – | – | – | – | Log2 (fold) (luciferase activity, log2 of the fold difference relative to DMSO controls) [2]: −0.242; Fold (luciferase activity, fold difference relative to DMSO controls) [2]: 0.846
Ro 31-8220 | – | – | – | – | Log2 (fold) of luciferase activity relative to DMSO controls [2]: 0.158; Fold (luciferase activity relative to DMSO controls) [2]: 1.116 fold
calphostin C | – | – | – | – | Log2 (fold) (luciferase activity, log2 of the fold difference relative to DMSO controls) [2]: −0.707; Fold (luciferase activity, fold difference relative to DMSO controls) [2]: 0.613
mastoparan | – | – | – | – | Log2 (fold) (luciferase activity, log2 of the fold difference relative to DMSO controls) [2]: −0.301; Fold (luciferase activity, fold difference relative to DMSO controls) [2]: 0.812
pifithrin | – | – | – | – | Log2 (fold) of luciferase activity relative to DMSO controls [2]: 0.022; Fold (luciferase activity relative to DMSO controls) [2]: 1.015 fold
tunicamycin [reference compound] | – | – | – | – | Fold [2]: 0.263 fold; Log2 (fold) (luciferase activity, log2 of the fold difference relative to DMSO controls) [2]: −1.925; Fold (luciferase activity, fold difference relative to DMSO controls) [2]: 0.263
